We go through 27 compounds from patent US12479818B2, “Treatment of fibrosis with IRE1 small molecule inhibitors” (Cornell University, priority 2019, dated 2025).

The structures appear in SMILES notation.

Sequence of IRE1a (O75460 19-977): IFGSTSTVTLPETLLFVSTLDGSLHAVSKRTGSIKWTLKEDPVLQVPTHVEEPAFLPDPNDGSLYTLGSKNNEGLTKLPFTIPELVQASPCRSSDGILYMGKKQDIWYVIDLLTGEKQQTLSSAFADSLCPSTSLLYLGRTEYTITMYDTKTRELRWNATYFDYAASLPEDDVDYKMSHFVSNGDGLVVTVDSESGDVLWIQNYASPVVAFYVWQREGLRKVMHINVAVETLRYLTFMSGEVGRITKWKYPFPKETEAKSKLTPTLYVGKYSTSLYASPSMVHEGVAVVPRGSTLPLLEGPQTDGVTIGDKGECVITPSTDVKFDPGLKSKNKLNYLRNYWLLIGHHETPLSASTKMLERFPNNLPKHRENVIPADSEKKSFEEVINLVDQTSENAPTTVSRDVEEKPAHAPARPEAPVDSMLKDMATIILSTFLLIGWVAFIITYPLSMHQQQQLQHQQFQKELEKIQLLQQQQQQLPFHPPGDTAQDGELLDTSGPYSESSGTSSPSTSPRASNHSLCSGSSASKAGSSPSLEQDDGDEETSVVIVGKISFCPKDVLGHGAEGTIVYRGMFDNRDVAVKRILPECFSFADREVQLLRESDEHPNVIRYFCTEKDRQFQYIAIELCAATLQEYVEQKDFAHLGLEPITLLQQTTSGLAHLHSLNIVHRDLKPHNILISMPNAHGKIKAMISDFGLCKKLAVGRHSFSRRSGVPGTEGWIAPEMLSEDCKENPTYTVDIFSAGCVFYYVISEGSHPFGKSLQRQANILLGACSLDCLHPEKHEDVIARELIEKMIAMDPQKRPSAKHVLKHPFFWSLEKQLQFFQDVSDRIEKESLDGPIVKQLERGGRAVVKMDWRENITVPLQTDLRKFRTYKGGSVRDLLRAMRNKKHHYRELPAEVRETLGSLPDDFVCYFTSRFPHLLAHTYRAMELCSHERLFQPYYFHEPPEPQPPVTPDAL

The assay concerns the target IRE1a (Homo sapiens, UniProt O75460). Put plainly: IRE1a Endoribonuclease Nanoluciferase Assay (XBP1 luciferase reporter in 293T cells). Format: cell-based. Details: endogenous in cells; host or cells: 293T. The conditions noted are these: XBP1 nanoluciferase reporter in 293T cells, ER stressor; tested as the salt named. The method, then:
Compounds disclosed herein were assessed for disruption of IRE1 signaling using a IRE1a Endoribonuclease Nanoluciferase Assay. […] About 24 hours later, the cells were transfected with Effectene. In a 15 mL tube, the following was added: 2 ug XBP1 luciferase reporter plasmid (PGK-Luc2-P2A-XBP1u-Nanoluciferase-PEST); 300 ul EC buffer; and 16 ul Enhancer, followed by incubation at room temp for 5 minutes. […] 2.6 mL cDMEM media was added. Old media was aspirated from the cells, followed by addition of 7 mL fresh media. Full transfection mixture was added dropwise to cells. Cells were incubated for 6 hours, followed by trypsinization, centrifugation and resuspension in 11 mL fresh cDMEM media. 100 μL of cells were plated per a well in a 96 well plate. A day later, ER stressors of choice +/− inhibitors were added. To harvest, media was aspirated from cells completely, then 50 uL 1× passive lysis buffer (Promega: E1941) was added per well and put on shaker (300 rpm) for 30 minutes at room temperature. […] 15 uL OneGlo (nanoluciferase kit, Promega N1630) was added. Plates were spun down, placed on shaker (300 rpm) for 10 minutes. Plates were read on luminometer, 1000 ms integration time per well. 15 uL Stop and Glo (nanoluciferase kit) was added. Plates were spun down, placed on shaker (300 rpm) for 10 minutes. Plates were read on luminometer, 1000 ms second integration time per well.
For orientation: Reporter assays use an easily measured gene product as a stand-in for the process of interest.
As for `CCc1cc(-c2cnc(NS(=O)(=O)c3ccccc3Cl)nc2C)cc2cnc(N[C@H]3CC[C@H](N)CC3)nc12` [Compound 23, N-(5-(2-(((1r,4r)-, 4-aminocyelohexyl)amino)-8-ethylquinazolin-6-yl)-4-methylpyrimidin-2-yl)-2-ehlorobenzene-sulfonamide], the 50% effective concentration (EC50) is < 5 nM.

Take `CCc1cc(-c2ccc(NS(=O)(=O)c3ccccc3Cl)c(F)c2)cc2cnc(N[C@H]3CC[C@H](N)CC3)nc12` [Compound 24, N-(4-(2-(((1r,4r)-4-aminocyclohexyl)amino)-8-ethylquinazolin-6-yl)-2-fluorophenyl)-2-chlorobenzene-sulfonamide]: the half-maximal effective concentration (EC50) was < 5 nM.

Regarding `N[C@H]1CC[C@H](Nc2ncc3cc(-c4ccc(NS(=O)(=O)c5ccccc5Cl)cc4)ccc3n2)CC1` [Compound 26, N-(4-(2-(((lr,4r) 4-aminocyclohexyl)amino)quinazolin-6-yl)phenyl)-2-chlorobenzene-sulfonamide], the EC50 is < 5 nM.

In the case of `CCc1cc(-c2ccc(NS(=O)(=O)c3ccccc3Cl)nc2)cc2cnc(N[C@H]3CC[C@H](N)CC3)nc12` [Compound 27, N-(5-(2-(((lr,4r)-4-aminocyclohexyl)amino)-8-ethylquinazolin-6-yl)pyridin-2-yl)-2-chlorobenzene-sulfonamide], the EC50 was < 5 nM.

As for `CCc1cc(-c2ccc(NS(=O)(=O)c3ccccc3Cl)cn2)cc2cnc(N[C@H]3CC[C@H](N)CC3)nc12` [Compound 28, N-(6-(2-(((1r,4r)-4-aminocyclohexyl)amino)-8-ethylquinazolin-6-yl)pyridin-3-yl)-2-chlorobenzene-sulfonamide], the EC50 was < 5 nM.

On to `CCc1cc(-c2cc(NS(=O)(=O)c3ccccc3Cl)n[nH]2)cc2cnc(N[C@H]3CC[C@H](N)CC3)nc12` [Compound 29, N-(5-(2-(((lr,4r)-4-aminocyclohexyl)amino)-8-ethylquinazolin-6-yl)-1H-pyrazol-3-yl)-2-chlorobenzene-sulfonamide], for which the EC50 was in the range of 100 to 10000 nM.

Turning to `CCc1cc(-c2ccc(NS(=O)(=O)c3ccccc3Cl)nn2)cc2cnc(N[C@H]3CC[C@H](N)CC3)nc12` [Compound 32], the concentration for a half-maximal effect (EC50) was < 5 nM.

Regarding `CCc1cc(-c2ncc(NS(=O)(=O)c3ccccc3Cl)cn2)cc2cnc(N[C@H]3CC[C@H](N)CC3)nc12` [Compound 33, N-(2-(2-(((1r,4r)-4-aminocyclohexyl)amino)-8-ethylquinazolin-6-yl)pyrimidin-5-yl)-2-chlorobenzene-sulfonamide], the EC50 is < 5 nM.

In the case of `CCc1cc(NS(=O)(=O)c2ccccc2Cl)ccc1-c1cc(CC)c2nc(N[C@H]3CC[C@H](N)CC3)ncc2c1` [Compound 34, N-(4-(2-(((1r,4r)-4-aminocyclohexyl)amino)-8-ethylquinazolin-6-yl)-3-ethylphenyl)-2-chlorobenzene-sulfonamide], the EC50 lay within 5 to 50 nM.

Take `CCc1cc(-c2ccc(NS(=O)(=O)c3ccccc3Cl)cc2F)cc2cnc(N[C@H]3CC[C@H](N)CC3)nc12` [Compound 35, N-(4-(2-(((lr,4r)-4-aminocyclohexyl)amino)-8-ethylquinazolin-6-yl)-3-f1uorophenyl)-2-chlorobenzene-sulfonamide]: the concentration for a half-maximal effect (EC50) was < 5 nM.

On to `CCc1cc(-c2cc(NS(=O)(=O)c3ccccc3Cl)no2)cc2cnc(N[C@H]3CC[C@H](N)CC3)nc12` [Compound 44, N-(5-(2-(((1r,4r)-4-aminocyclohexyl)amino)-8-ethylquinazolin 6-yl)isoxazol-3-yl)-2-chlorobenzene-sulfonamide], for which the EC50 was < 5 nM.

`CCc1cc(-c2cnc(NS(=O)(=O)c3ccccc3Cl)nc2OC)cc2cnc(N[C@H]3CC[C@H](N)CC3)nc12` [Compound 46, N-(5-(2-(((1r,4r)-4-aminocyclohexyl)amino)-8-ethylquinazolin-6-yl)-4-methoxypyrimidin-2-yl)-2-chlorobenzene-sulfonamide]: the EC50 was < 5 nM.

As to `CCCc1cc(-c2cc(NS(=O)(=O)c3ccccc3Cl)nn2C)cc2cnc(N[C@H]3CC[C@H](N)CC3)nc12` [Compound 47, N-(5-(2-(((1r,4r)-4-aminocyclohexyl)amino)-8-propylquinazolin-6-yl)-1-methyl-1H-pyrazol-3-yl)-2-chlorobenzene-sulfonamide], the half-maximal effective concentration (EC50) lay within 5 to 50 nM.

With `N[C@H]1CC[C@H](Nc2ncc3cc(-c4ccc(NS(=O)(=O)c5ccccc5Cl)cc4F)ccc3n2)CC1` [Compound 48, N-(4-(2-(((1r,4r)-4-aminocyclohexyl)amino)quinazolin-6-yl)-3-fluorophenyl)-2-chlorobenzene-sulfonamide], the EC50 was in the range of 5 to 50 nM.

Take `N[C@H]1CC[C@H](Nc2ncc3cc(-c4ncc(NS(=O)(=O)c5ccccc5Cl)cc4F)ccc3n2)CC1` [Compound 51, N-(6-(2-(((1r,4r)-4-aminocyclohexyl)amino)quinazolin-6-yl)-5-fluoropyridin-3-yl)-2-chlorobenzene-sulfonamide]: the concentration giving a half-maximal response (EC50) was 50 to 100 nM.

`CCc1cc(-c2ncc(NS(=O)(=O)c3ccccc3Cl)cc2F)cc2cnc(N[C@H]3CC[C@H](N)CC3)nc12` [Compound 52, N-(6-(2-(((1r,4r)-4-aminocyclohexyl)amino)-8-ethylquinazolin-6-yl)-5-fluoropyridin-3-yl)-2-chlorobenzene-sulfonamide]: the EC50 was < 5 nM.

On to `N[C@H]1CC[C@H](Nc2ncc3cc(-c4cc(F)c(NS(=O)(=O)c5ccccc5Cl)cc4F)ccc3n2)CC1` [Compound 53, N-(4-(2-(((1r,4r)-4-aminocyclohexyl)amino)quinazolin-6-yl)-2,5-difluorophenyl)-2-chlorobenzene-sulfonamide], for which the EC50 was < 5 nM.

In the case of `N[C@H]1CC[C@H](Nc2ncc3cc(-c4cnc(NS(=O)(=O)c5ccccc5Cl)c(F)c4)ccc3n2)CC1` [Compound 54, N-(5-(2-(((1r,4r)-4-aminocyclohexyl)amino)quinazolin-6-yl)-3-fluoropyridin-2-yl)-2-chlorobenzene-sulfonamide], the EC50 was in the range of 5 to 50 nM.

`CCc1cc(-c2cnc(NS(=O)(=O)c3ccccc3Cl)c(F)c2)cc2cnc(N[C@H]3CC[C@H](N)CC3)nc12` [Compound 55, N-(5-(2-(((1r,4r)-4-aminocyclohexyl)amino)-8-ethylquinazolin-6-yl)-3-fluoropyridin-2-yl)-2-chlorobenzene-sulfonamide]: the half-maximal effective concentration (EC50) was < 5 nM.

As to `N[C@H]1CC[C@H](Nc2ncc3cc(-c4ccc(NS(=O)(=O)c5ccccc5Cl)c(F)c4F)ccc3n2)CC1` [Compound 56, N-(4-(2-(((1r,4r)-4-aminocyclohexyl)amino)quinazolin-6-yl)-2,3-difluorophenyl)-2-chlorobenzene-sulfonamide], the EC50 is < 5 nM.

As for `N[C@H]1CC[C@H](Nc2cc3ccc(-c4ccc(NS(=O)(=O)c5ccccc5Cl)c(F)c4)cc3cn2)CC1` [Compound 57, N-(4-(3-(((1r,4r)-4-aminocyclohexyl)amino)isoquinolin-7-yl)-2-fluorophenyl)-2-chlorobenzene-sulfonamide], the EC50 is < 5 nM.

Regarding `CCc1cc(-c2ccc(NS(=O)(=O)c3ccccc3Cl)c(F)c2)cc2cnc(N[C@H]3CC[C@H](NC(C)=O)CC3)nc12` [Compound 59, N-((1r,4)-4-((6-(4-((2-chlorophenyl)sulfonamido)-3-fluorophenyl)-8-ethylquinazolin-2-yl)amino)cyclohexyl) acetamide], the EC50 lay in the range of 50 to 100 nM.

In the case of `CCc1cc(-c2ccc(NS(=O)(=O)c3ccccc3Cl)c(F)c2)cc2cnc(N[C@H]3CC[C@H](NC)CC3)nc12` [Compound 60, 2-chloro-N-(4-(8-ethyl-2-(((1r,4)-4-(methylamino)cyclohexyl)amino)quinazolin-6-yl)-2-fluorophenyl) benzene-sulfonamide], the EC50 is < 5 nM.

As to `CCc1cc(-c2ccc(NS(=O)(=O)c3ccccc3Cl)nn2)cc2cnc(N[C@H]3CC[C@H](NC)CC3)nc12` [Compound 61, 2-chloro-N-(6-(8-ethyl-2-(((lr,4r)-4-(methylamino)cyclohexyl)amino)quinazolin-6-yl)pyridazin-3-yl)benzene-sulfonamide], the 50% effective concentration (EC50) is < 5 nM.

Regarding `N[C@H]1CC[C@H](Nc2ncc3cc(-c4c(F)cc(NS(=O)(=O)c5ccccc5Cl)cc4F)ccc3n2)CC1` [Compound 62, N-(4-(2-(((1r,4r)-4-aminocyclohexyl)amino)quinazolin-6-yl)-3,5-difluorophenyl)-2-chlorobenzene-sulfonamide], the half-maximal effective concentration (EC50) lay within 5 to 50 nM.

As for `CCc1cc(-c2ccc(NS(=O)(=O)c3ccccc3Cl)nn2)cc2cnc(N[C@H]3CC[C@H](N(C)C)CC3)nc12` [Compound 64, 2-chloro-N-(6-(2-(((1r,4r)-4-(dimethylamino)cyclohexyl)amino)-8-ethylquinazolin-6-yl)pyridazin-3-yl)benzene-sulfonamide], the EC50 is < 5 nM.

On to `CCc1cc(-c2nnc(NS(=O)(=O)c3ccccc3Cl)cc2OC)cc2cnc(N[C@H]3CC[C@H](N)CC3)nc12` [Compound 65, N-(6--(2-(((lr,4r)-4-aminocyclohexyl)amino)-8-ethylquinazolin-6-yl)-5-methoxypyridazin-3-yl)-2-chlorobenzene-sulfonamide], for which the EC50 was in the range of 5 to 50 nM.

A word on the EC50: it is the concentration giving half of the maximal effect.
